Assay results: EP4596574A1, “GLP-1/GCG/GIP TRIPLE-RECEPTOR AGONIST AND USE THEREOF” (Sunshine Lake Pharma Co., Ltd., priority 2022, dated 2024)
Read-outs that look alike come from different tables or passages of the source. Marks after values point to notes of the source that are not given here.

Key:
GCGR = molecular target: T1, GCGR (Homo sapiens, UniProt P47871); assay: In vitro cell activity, cAMP production in HEK293 cells expressing GCGR; type: cell-based
T1 construct: expressed in transfected cells; host or cells: HEK293 (HEK293-GCGR)
How it was run: (§1)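 Assay format: cells at 4×10^5 cells/mL, cAMP sensed by d2/cryptate FRET pair, dual-wavelength read at 665 and 620 nm. Potency expressed as EC50 from nonlinear fitting.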

[1] = Glucose tolerance assessment in normal C57BL/6 mice (Example 4); type: in vivo
How it was run: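 Twelve hours after a single administration, mice were fasted 12 h and then given 2 g/kg glucose i.p. Tail-vein blood glucose was measured at baseline and at 15, 30, 60 and 90 min. AUC0–90min was calculated per dose group at 24 h post-dose.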

GLP-1R = molecular target: T2, GLP-1R (Homo sapiens, UniProt P43220); assay: In vitro cell activity, cAMP production in HEK293 cells expressing GLP-1R; type: cell-based
T2 construct: expressed in transfected cells; host or cells: HEK293 (HEK293-GLP-1R)
How it was run: as §1

GIPR = molecular target: T3, GIPR (Homo sapiens, UniProt P48546); assay: In vitro cell activity, cAMP production in HEK293 cells expressing GIPR; type: cell-based
T3 construct: expressed in transfected cells; host or cells: HEK293 (HEK293-GIPR)
T3 sequence (P48546 22-466): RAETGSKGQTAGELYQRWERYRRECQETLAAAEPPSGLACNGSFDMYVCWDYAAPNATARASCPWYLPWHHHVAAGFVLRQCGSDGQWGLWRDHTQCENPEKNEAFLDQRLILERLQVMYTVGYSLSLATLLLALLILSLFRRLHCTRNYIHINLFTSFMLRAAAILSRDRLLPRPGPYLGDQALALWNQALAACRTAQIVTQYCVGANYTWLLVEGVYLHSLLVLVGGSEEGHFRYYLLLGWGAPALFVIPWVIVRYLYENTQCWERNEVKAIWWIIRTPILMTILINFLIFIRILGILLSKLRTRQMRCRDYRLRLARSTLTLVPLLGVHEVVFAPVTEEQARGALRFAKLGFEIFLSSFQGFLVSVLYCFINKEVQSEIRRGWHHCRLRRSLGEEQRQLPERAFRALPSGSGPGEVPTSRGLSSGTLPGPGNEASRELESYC
How it was run: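 cAMP accumulation is quantified by homogeneous TR-FRET (cAMP-d2 plus anti-cAMP cryptate) in GIPR-expressing HEK293 cells seeded from a 4×10^5 cells/mL suspension and treated with compound. The signal ratio is plotted against concentration and fitted to a four-parameter curve to give EC50.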

[2] = Pharmacokinetic study in rats, single subcutaneous injection; settings: male, Sprague Dawley, in vivo, sc, rat
Description: The pharmacokinetic study of each polypeptide compound prepared in Example 1 was conducted using male Sprague Dawley rats. There were 3 male rats in each group. […] The dose was 50 nmol/kg, and a single subcutaneous injection was given (see Table 3 for specific peptide compounds). After administration, plasma was collected on the specified days and time points, and the concentration of each peptide compound in the plasma was detected by LC-MS/MS method. The pharmacokinetic parameters were obtained based on the concentration data, which were used to describe the pharmacokinetic properties of the peptide in rats after subcutaneous injection. Table 3: Summary of pharmacokinetic parameters of some triple-target peptides in rats

[3] = 50 nmol/kg single subcutaneous injection, plasma

T2 sequence (P43220 24-463, species assumed): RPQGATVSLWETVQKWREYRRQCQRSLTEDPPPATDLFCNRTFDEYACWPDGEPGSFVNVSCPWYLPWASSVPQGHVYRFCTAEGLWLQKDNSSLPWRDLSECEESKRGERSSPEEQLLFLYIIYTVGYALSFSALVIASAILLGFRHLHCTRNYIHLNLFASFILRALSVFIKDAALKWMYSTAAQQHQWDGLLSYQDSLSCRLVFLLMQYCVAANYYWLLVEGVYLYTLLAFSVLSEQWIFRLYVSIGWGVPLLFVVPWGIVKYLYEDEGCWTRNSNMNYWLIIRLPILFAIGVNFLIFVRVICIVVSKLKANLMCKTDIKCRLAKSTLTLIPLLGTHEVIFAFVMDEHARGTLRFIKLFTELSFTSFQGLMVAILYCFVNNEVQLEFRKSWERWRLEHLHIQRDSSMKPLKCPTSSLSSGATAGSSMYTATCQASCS
T1 sequence (P47871 26-477, species assumed): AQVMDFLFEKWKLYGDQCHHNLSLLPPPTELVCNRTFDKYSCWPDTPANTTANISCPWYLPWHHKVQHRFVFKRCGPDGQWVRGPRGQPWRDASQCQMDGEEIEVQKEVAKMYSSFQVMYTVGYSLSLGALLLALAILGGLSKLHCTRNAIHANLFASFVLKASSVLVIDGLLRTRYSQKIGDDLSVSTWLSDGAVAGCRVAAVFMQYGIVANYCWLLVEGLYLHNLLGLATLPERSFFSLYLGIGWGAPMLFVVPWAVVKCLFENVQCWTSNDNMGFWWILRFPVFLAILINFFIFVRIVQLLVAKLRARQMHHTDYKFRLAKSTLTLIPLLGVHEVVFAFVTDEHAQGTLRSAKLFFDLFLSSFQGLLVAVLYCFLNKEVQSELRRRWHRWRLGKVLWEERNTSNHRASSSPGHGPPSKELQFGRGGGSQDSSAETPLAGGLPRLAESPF

Row | SMILES | EC50 (GCGR) | Blood glucose level (mM) 15 min ([1]; 3 nmol/kg s.c. single dose, 24 h after administration, 15 min after 2 g/kg glucose i.p.) | Blood glucose level (mM) 30 min ([1]; 3 nmol/kg s.c. single dose, 24 h after administration, 30 min after 2 g/kg glucose i.p.) | Blood glucose level (mM) 60 min ([1]; 3 nmol/kg s.c. single dose, 24 h after administration, 60 min after 2 g/kg glucose i.p.) | Blood glucose level (mM) 90 min ([1]; 3 nmol/kg s.c. single dose, 24 h after administration, 90 min after 2 g/kg glucose i.p.) | Blood glucose level (mM) 0 min ([1]; 3 nmol/kg s.c. single dose, 24 h after administration, basal before 2 g/kg glucose i.p.) | improvement of glucose tolerance compared with LY3298176 ([1]; 24 hours after a single administration, 3 nmol/kg) | AUC0-90 min ([1]; blood glucose AUC, 3 nmol/kg s.c. single dose, 24 h after administration, 2 g/kg glucose i.p.) | EC50 (GLP-1R) | EC50 (GIPR) | AUC(0-inf) [2, 3] | AUC(0-t) [2, 3] | Cmax [2, 3] | half-life ([2]; 50 nmol/kg single subcutaneous injection, plasma, read-out: T1/2 (converted)) | Tmax ([2]; 50 nmol/kg single subcutaneous injection, plasma, read-out: Tmax) | EC50 (GCGR; HEK293-GCGR cells, cAMP, read-out: GCGR (EC50)) | EC50 (GLP-1R; HEK293-GLP-1R cells, cAMP, read-out: GLP-1R (EC50)) | EC50 (GIPR; HEK293-GIPR cells, cAMP, read-out: GIPR (EC50)) | Tmax [2] | half-life ([2]; 50 nmol/kg)
1 | CC[C@H](C)[C@H](NC(=O)[C@H](Cc1ccccc1)NC(=O)[C@H](C)NC(=O)[C@H](CCC(N)=O)NC(=O)[C@H](CCC(N)=O)NC(=O)[C@H](CCCNC(=N)N)NC(=O)[C@H](CCCCNC(=O)COCCOCCNC(=O)CC[C@H](NC(=O)CCCCCCCCCCCCCCCCC(=O)O)C(=O)O)NC(=O)[C@H](CCC(=O)O)NC(=O)[C@H](CC(=O)O)NC(=O)[C@H](CC(C)C)NC(=O)[C@H](CC(C)C)NC(=O)[C@@H](NC(=O)[C@H](CO)NC(=O)[C@H](Cc1ccc(O)cc1)NC(=O)[C@H](CC(=O)O)NC(=O)[C@H](CO)NC(=O)[C@@H](NC(=O)[C@](C)(Cc1ccccc1F)NC(=O)[C@@H](NC(=O)CNC(=O)[C@H](CCC(N)=O)NC(=O)C(C)(C)NC(=O)[C@@H](N)Cc1ccc(O)cc1)[C@@H](C)O)[C@@H](C)O)[C@@H](C)CC)C(=O)N[C@@H](CCC(=O)O)C(=O)N[C@@H](Cc1ccc(O)cc1)C(=O)N[C@@H](CC(C)C)C(=O)N[C@@H](CC(C)C)C(=O)N[C@@H](CCC(=O)O)C(=O)NCC(=O)NCC(=O)N1CCC[C@H]1C(=O)N[C@@H](CO)C(=O)N[C@@H](CO)C(=O)NCC(=O)N[C@@H](C)C(=O)N1CCC[C@H]1C(=O)N1CCC[C@H]1C(=O)N1CCC[C@H]1C(=O)N[C@@H](CO)C(=O)O [HEC-PT82] | 0.615 nM | 12.4 ± 4.3 mM | 7.6 ± 1.5 mM | 6.9 ± 0.8 mM | 6.6 ± 0.6 mM | 3.8 ± 0.6 mM | more effective in improving glucose tolerance than the positive control LY3298176 | 691.8±116.4^a | 0.36 nM | 0.0831 nM | 29400 ± 3050 ng·h/mL | 29100 ± 3030 ng·h/mL | 836 ± 217 ng/mL | 1020 ± 48 min | 8.7 ± 2.3 h |  |  |  |  | 
2 | CC[C@H](C)[C@H](NC(=O)[C@H](Cc1ccccc1)NC(=O)[C@H](C)NC(=O)[C@H](CCC(N)=O)NC(=O)[C@H](CCC(N)=O)NC(=O)[C@H](CCCNC(=N)N)NC(=O)[C@H](CCCCNC(=O)COCCOCCNC(=O)CC[C@H](NC(=O)CCCCCCCCCCCCCCCCCCC(=O)O)C(=O)O)NC(=O)[C@H](CCC(=O)O)NC(=O)[C@H](CC(=O)O)NC(=O)[C@H](CC(C)C)NC(=O)[C@H](CC(C)C)NC(=O)[C@@H](NC(=O)[C@H](CO)NC(=O)[C@H](Cc1ccc(O)cc1)NC(=O)[C@H](CC(=O)O)NC(=O)[C@H](CO)NC(=O)[C@@H](NC(=O)[C@](C)(Cc1ccccc1F)NC(=O)[C@@H](NC(=O)CNC(=O)[C@H](Cc1c[nH]cn1)NC(=O)C(C)(C)NC(=O)[C@@H](N)Cc1ccc(O)cc1)[C@@H](C)O)[C@@H](C)O)[C@@H](C)CC)C(=O)N[C@@H](CCC(=O)O)C(=O)N[C@@H](Cc1ccc(O)cc1)C(=O)N[C@@H](CC(C)C)C(=O)N[C@@H](CC(C)C)C(=O)N[C@@H](CCC(=O)O)C(=O)NCC(=O)NCC(=O)N1CCC[C@H]1C(=O)N[C@@H](CO)C(=O)N[C@@H](CO)C(=O)NCC(=O)N[C@@H](C)C(=O)N1CCC[C@H]1C(=O)N1CCC[C@H]1C(=O)N1CCC[C@H]1C(=O)N[C@@H](CO)C(=O)O [HEC-PT93] |  |  |  |  |  |  |  |  |  |  |  |  |  |  |  | 0.354 nM | 1.17 nM | 0.159 nM | 25 ± 2.3 h | 1140 ± 72 min
